Molecular target: S. aureus GyrB ATPase (Staphylococcus aureus, UniProt P0A0K8)
Experiment: S. aureus GyrB ATPase inhibition (ammonium molybdate/malachite green phosphate detection)
Format: biochemical
Conditions: compound concentration of 1 μM
Protocol: S. aureus GyrB ATPase Inhibition Activity: Compounds may be tested for inhibition of S. aureus GyrB ATPase activity using an ammonium molybdate/malachite green-based phosphate detection assay (Lanzetta, P. A., L. J. Alvarez, P. S. Reinach, and O. A. Candia, 1979, 100: 95-97). Assays can be performed in multiwell plates in 30 μl reactions containing: 50 mM Hepes buffer pH 7.5, 75 mM ammonium acetate, 8.0 mM magnesium chloride, 0.5 mM ethylenediaminetetraacetic acid, 5% glycerol, 1.0 mM 1,4-Dithio-DL-threitol, 200 nM bovine serum albumin, 1.0 μg/ml sheared salmon sperm DNA, 250 pM E. coli GyrA, 250 pM S. aureus GyrB, 250 μM ATP, and compound in dimethylsulfoxide. Reactions can be quenched with […] of ammonium molybdate/malachite green detection reagent containing 1.2 mM malachite green hydrochloride, 8.5 mM ammonium molybdate tetrahydrate, and 1 M hydrochloric acid. Plates can be read in an absorbance plate reader at 650 nm and percent inhibition values can be calculated using dimethylsulfoxide (2%)-containing reactions as 0% inhibition and EDTA-containing ([…]) reactions as 100% inhibition controls. An IC50 measurement of compound potency for each compound can be determined from reactions performed in the presence of 10 different compound concentrations.
Compounds of the invention were tested in an assay substantially similar to the assay described above for measuring the inhibition of S. aureus GyrB ATPase. Percent inhibition of S. aureus GyrB ATPase at a compound concentration of 1 μM (unless otherwise noted) is disclosed in the following table: […]

Sequence of S. aureus GyrB ATPase (P0AES4 whole entry): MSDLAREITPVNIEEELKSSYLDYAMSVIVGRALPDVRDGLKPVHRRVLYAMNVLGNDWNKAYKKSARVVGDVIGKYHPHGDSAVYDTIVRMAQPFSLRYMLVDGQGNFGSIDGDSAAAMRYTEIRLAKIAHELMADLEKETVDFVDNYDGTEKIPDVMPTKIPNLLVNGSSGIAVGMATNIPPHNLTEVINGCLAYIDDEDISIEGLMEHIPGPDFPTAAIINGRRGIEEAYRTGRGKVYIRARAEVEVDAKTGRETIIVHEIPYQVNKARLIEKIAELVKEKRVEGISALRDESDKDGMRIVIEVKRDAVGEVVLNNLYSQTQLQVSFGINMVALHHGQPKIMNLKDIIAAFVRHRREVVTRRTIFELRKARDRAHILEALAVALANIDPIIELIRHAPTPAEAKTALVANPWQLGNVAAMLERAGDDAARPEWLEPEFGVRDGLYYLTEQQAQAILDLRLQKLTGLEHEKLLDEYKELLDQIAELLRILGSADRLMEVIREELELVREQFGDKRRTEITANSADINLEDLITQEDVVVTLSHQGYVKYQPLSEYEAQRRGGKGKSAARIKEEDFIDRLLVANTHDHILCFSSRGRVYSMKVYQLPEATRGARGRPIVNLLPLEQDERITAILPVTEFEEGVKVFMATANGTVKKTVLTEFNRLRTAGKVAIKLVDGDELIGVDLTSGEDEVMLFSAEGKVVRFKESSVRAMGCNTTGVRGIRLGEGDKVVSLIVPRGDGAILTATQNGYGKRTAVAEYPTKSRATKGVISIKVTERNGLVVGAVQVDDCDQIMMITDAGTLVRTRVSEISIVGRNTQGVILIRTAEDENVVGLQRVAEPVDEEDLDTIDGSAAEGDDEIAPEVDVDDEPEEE
Sequence of S. aureus GyrB ATPase (P0A0K8 whole entry): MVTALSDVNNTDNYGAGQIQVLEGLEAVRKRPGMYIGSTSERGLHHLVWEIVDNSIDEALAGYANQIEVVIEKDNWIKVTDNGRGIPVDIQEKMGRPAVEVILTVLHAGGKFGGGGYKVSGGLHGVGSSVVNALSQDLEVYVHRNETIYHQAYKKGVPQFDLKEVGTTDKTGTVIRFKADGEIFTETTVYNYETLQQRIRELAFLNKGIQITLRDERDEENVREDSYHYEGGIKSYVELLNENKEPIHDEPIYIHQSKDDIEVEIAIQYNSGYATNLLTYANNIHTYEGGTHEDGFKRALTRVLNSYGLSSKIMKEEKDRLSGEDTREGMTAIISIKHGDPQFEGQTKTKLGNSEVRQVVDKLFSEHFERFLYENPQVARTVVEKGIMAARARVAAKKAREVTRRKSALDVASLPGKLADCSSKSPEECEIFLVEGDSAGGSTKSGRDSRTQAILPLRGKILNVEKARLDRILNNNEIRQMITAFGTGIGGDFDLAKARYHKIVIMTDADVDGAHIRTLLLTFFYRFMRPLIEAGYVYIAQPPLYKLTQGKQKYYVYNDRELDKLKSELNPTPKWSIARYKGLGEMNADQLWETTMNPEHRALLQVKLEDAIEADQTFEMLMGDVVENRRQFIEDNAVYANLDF

SMILES	inhibition at 1 µM [%]
COC(=O)c1sc(N2CC[C@@H](NC(=O)c3[nH]c(C)c(Cl)c3Cl)[C@@H](F)C2)nc1-c1csc(N)n1 [Example 74]	100
CCOC(=O)c1sc(N2CC[C@@H](NC(=O)c3[nH]c(C)c(Cl)c3Cl)[C@@H](OC)C2)nc1-c1cn(C)cn1 [Example 77]	100
CCOC(=O)c1sc(N2CC[C@@H](NC(=O)c3[nH]c(C)c(Cl)c3Cl)[C@@H](OC)C2)nc1-c1cnccn1 [Example 53]	100
COCn1ccnc1-c1nc(N2CC[C@@H](NC(=O)c3[nH]c(C)c(Cl)c3Cl)[C@@H](F)C2)sc1C(=O)O [Example 19, 2-((3S,4R)-4-{[(3,4-Dichloro-5-methyl-1H-pyrrol-2-yl)carbonyl]amino}-3-fluoropiperidin-1-yl)-4-[1-(methoxymethyl)-1H-imidazol-2-yl]-1,3-thiazole-5-carboxylic acid]	102
COC(=O)c1sc(N2CC[C@@H](NC(=O)c3[nH]c(C)c(Cl)c3Cl)[C@@H](OC)C2)nc1-c1nc(C)c(C)n1C [Example 70]	99.5
Cc1[nH]c(C(=O)N[C@@H]2CCN(c3nc(-c4ncccc4F)c(C(=O)O)s3)C[C@@H]2OCc2ccccc2)cc1Cl [Example 149, 2-[(3S,4R)-3-(benzyloxy)-4-{[(4-chloro-5-methyl-1H-pyrrol-2-yl)carbonyl]amino}piperidin-1-yl]-4-(3-fluoropyridin-2-yl)-1,3-thiazole-5-carboxylic acid]	103
CO[C@H]1CN(c2nc(-c3nccn3COCC[Si](C)(C)C)c(C(=O)O)s2)CC[C@H]1NC(=O)c1[nH]c(C)c(Cl)c1Cl [Example 16, 2-((3S,4R)-4-{[(3,4-Dichloro-5-methyl-1H-pyrrol-2-yl)carbonyl]amino}-3-methoxypiperidin-1-yl)-4-(1-{[2-(trimethylsilyl)ethoxy]methyl}-1H-imidazol-2-yl)-1,3-thiazole-5-carboxylic acid]	100
Cc1[nH]c(C(=O)N[C@@H]2CCN(c3nc(-c4ncnn4C)c(C(=O)O)s3)C[C@@H]2F)c(Cl)c1Cl [Example 28, 2-((3S,4R)-4-{[(3,4-Dichloro-5-methyl-1H-pyrrol-2-yl)carbonyl]amino}-3-fluoropiperidin-1-yl)-4-(1-methyl-1H-1,2,4-triazol-5-yl)-1,3-thiazole-5-carboxylic acid]	87.1
CO[C@H]1CN(c2nc(-c3cn(C)cn3)c(C(=O)O)s2)CC[C@H]1NC(=O)c1[nH]c(C)c(Cl)c1C#N [Example 125, 2-((3S,4R)-4-(4-chloro-3-cyano-5-methyl-1H-pyrrole-2-carboxamido)-3-methoxypiperidin-1-yl)-4-(1-methyl-1H-imidazol-4-yl)thiazole-5-carboxylic acid]	103
COCn1ccnc1-c1nc(N2CC[C@@H](NC(=O)c3[nH]c(C)c(Cl)c3Cl)[C@@H](OC)C2)sc1C(=O)O [Example 17, 2-((3S,4R)-4-{[(3,4-Dichloro-5-methyl-1H-pyrrol-2-yl)carbonyl]amino}-3-methoxypiperidin-1-yl)-4-[1-(methoxymethyl)-1H-imidazol-2-yl]-1,3-thiazole-5-carboxylic acid]	97.7
CO[C@H]1CN(c2nc(-c3ncccc3F)c(C(=O)O)s2)CC[C@H]1NC(=O)c1[nH]c(C)c(Cl)c1Cl [Example 114, 2-((3S,4R)-4-(3,4-dichloro-5-methyl-1H-pyrrole-2-carboxamido)-3-methoxypiperidin-1-yl)-4-(3-fluoropyridin-2-yl)thiazole-5-carboxylic acid]	82.9
CO[C@H]1CN(c2nc(-c3ncnn3C)c(C(=O)O)s2)CC[C@H]1NC(=O)c1cc(C#N)c(C)[nH]1 [Example 31, 2-((3S,4R)-4-{[(4-Cyano-5-methyl-1H-pyrrol-2-yl)carbonyl]amino}-3-methoxypiperidin-1-yl)-4-(1-methyl-1H-1,2,4-triazol-5-yl)-1,3-thiazole-5-carboxylic acid]	99.3
COC(=O)c1sc(N2CC[C@@H](NC(=O)c3[nH]c(C)c(Cl)c3Cl)[C@@H](OC)C2)nc1-c1cccc(OC)n1 [Example 94, methyl 2-((3S,4R)-4-(3,4-dichloro-5-methyl-1H-pyrrole-2-carboxamido)-3-methoxypiperidin-1-yl)-4-(6-methoxypyridin-2-yl)thiazole-5-carboxylate]	106
CCCO[C@H]1CN(c2nc(-c3ncnn3C)c(C(=O)O)s2)CC[C@H]1NC(=O)c1[nH]c(C)c(Cl)c1Cl [Example 159, 2-[(3S,4R)-4-{[(3,4-dichloro-5-methyl-1H-pyrrol-2-yl)carbonyl]amino}-3-propoxypiperidin-1-yl]-4-(1-methyl-1H-1,2,4-triazol-5-yl)-1,3-thiazole-5-carboxylic acid]	31
Cc1[nH]c(C(=O)N[C@@H]2CCN(c3nc(-c4ncnn4C)c(C(=O)O)s3)C[C@@H]2OCc2ccccc2)c(C#N)c1Cl [Example 151, 2-[(3S,4R)-3-(benzyloxy)-4-{[(4-chloro-3-cyano-5-methyl-1H-pyrrol-2-yl)carbonyl]amino}piperidin-1-yl]-4-(1-methyl-1H-1,2,4-triazol-5-yl)-1,3-thiazole-5-carboxylic acid]	115
CO[C@H]1CN(c2nc(-c3csc(N)n3)c(C(=O)O)s2)CC[C@H]1NC(=O)c1[nH]c(C)c(Cl)c1Cl [Example 33, 2′-Amino-2-((3S,4R)-4-{[(3,4-dichloro-5-methyl-1H-pyrrol-2-yl)carbonyl]amino}-3-methoxypiperidin-1-yl)-4,4′-bi-1,3-thiazole-5-carboxylic acid]	101
CO[C@H]1CN(c2nc(-c3ncnn3C)c(C(=O)O)s2)CC[C@H]1NC(=O)c1[nH]c(C)c(Cl)c1Cl [Example 27, 2-((3S,4R)-4-{[(3,4-Dichloro-5-methyl-1H-pyrrol-2-yl)carbonyl]amino}-3-methoxypiperidin-1-yl)-4-(1-methyl-1H-1,2,4-triazol-5-yl)-1,3-thiazole-5-carboxylic acid]	99.9
CO[C@H]1CN(c2nc(-c3nccn3C)c(C(=O)O)s2)CC[C@H]1NC(=O)c1[nH]c(C)c(Cl)c1Cl [Example 21, 2-((3S,4R)-4-{[(3,4-Dichloro-5-methyl-1H-pyrrol-2-yl)carbonyl]amino}-3-methoxypiperidin-1-yl)-4-(1-methyl-1H-imidazol-2-yl)-1,3-thiazole-5-carboxylic acid]	99.1
CO[C@H]1CN(c2nc(-c3csc(N(C)C)n3)c(C(=O)O)s2)CC[C@H]1NC(=O)c1[nH]c(C)c(Cl)c1Cl [Example 35, 2-((3S,4R)-4-{[(3,4-Dichloro-5-methyl-1H-pyrrol-2-yl)carbonyl]amino}-3-methoxypiperidin-1-yl)-2′-(dimethylamino)-4,4′-bi-1,3-thiazole-5-carboxylic acid]	96.6
CCOC(=O)c1sc(N2CC[C@@H](NC(=O)c3[nH]c(C)c(Cl)c3Cl)[C@@H](OC)C2)nc1-c1nc(OC)cc(OC)n1 [Example 52]	101
CO[C@H]1CN(c2nc(-c3cn(C)cn3)c(C(=O)O)s2)CC[C@H]1NC(=O)c1[nH]c(C)c(Cl)c1Cl [Example 40, 2-((3S,4R)-4-{[(3,4-Dichloro-5-methyl-1H-pyrrol-2-yl)carbonyl]amino}-3-methoxypiperidin-1-yl)-4-(1-methyl-1H-imidazol-4-yl)-1,3-thiazole-5-carboxylic acid]	101
COC(=O)c1sc(N2CC[C@@H](NC(=O)c3[nH]c(C)c(Cl)c3Cl)[C@@H](OC)C2)nc1-c1ccn[nH]1 [Example 62]	99.9
Cc1[nH]c(C(=O)N[C@@H]2CCN(c3nc(-c4csc(N)n4)c(C(=O)O)s3)C[C@@H]2F)c(Cl)c1Cl [Example 36, 2′-Amino-2-((3S,4R)-4-{[(3,4-dichloro-5-methyl-1H-pyrrol-2-yl)carbonyl]amino}-3-fluoropiperidin-1-yl)-4,4′-bi-1,3-thiazole-5-carboxylic acid]	99.6
COCCn1ccnc1-c1nc(N2CC[C@@H](NC(=O)c3[nH]c(C)c(Cl)c3Cl)[C@@H](F)C2)sc1C(=O)OC [Example 65]	98.3
COC(=O)c1sc(N2CC[C@@H](NC(=O)c3[nH]c(C)c(C#N)c3Cl)[C@@H](OC)C2)nc1-c1ncnn1C [Example 80]	99.7
Cc1[nH]c(C(=O)N[C@@H]2CCN(c3nc(-c4ncnn4C)c(C(=O)O)s3)C[C@@H]2OCc2ccccc2)c(Cl)c1Cl [Example 141, 2-[(3S,4R)-3-(benzyloxy)-4-{[(3,4-dichloro-5-methyl-1H-pyrrol-2-yl)carbonyl]amino}piperidin-1-yl]-4-(1-methyl-1H-1,2,4-triazol-5-yl)-1,3-thiazole-5-carboxylic acid]	116
COC(=O)c1sc(N2CC[C@@H](NC(=O)c3[nH]c(C)c(Cl)c3Cl)[C@@H](F)C2)nc1-c1csc(N(C)C)n1 [Example 76]	99.2
Cc1[nH]c(C(=O)N[C@@H]2CCN(c3nc(-c4ncccn4)c(C(=O)O)s3)C[C@@H]2F)c(Cl)c1Cl [Example 4, 2-((3S,4R)-4-{[(3,4-Dichloro-5-methyl-1H-pyrrol-2-yl)carbonyl]amino}-3-fluoropiperidin-1-yl)-4-pyrimidin-2-yl-1,3-thiazole-5-carboxylic acid]	97.7

Reference: patent US20080312255A1 (ASTRAZENECA AB, priority 2007, published 2008)
